Experimental data taken from US10377753B2, “Substituted 4-azaindoles and their use as GluN2B receptor modulators” (Janssen Pharmaceutica NV, priority 2015, dated 2019).

What follows are compounds tested against cloned human NR1/NR2B ion channels (Homo sapiens (Human), UniProt Q05586+Q13224) (assay: HNR2BC: effects of test articles on cloned human NR1/NR2B ion channels expressed in mammalian cells (FLIPR calcium flux)). Settings: cloned human NR1/NR2B ion channels, Table 5.
Sequence of cloned human NR1/NR2B ion channels (Q13224 27-1484, other chains not shown): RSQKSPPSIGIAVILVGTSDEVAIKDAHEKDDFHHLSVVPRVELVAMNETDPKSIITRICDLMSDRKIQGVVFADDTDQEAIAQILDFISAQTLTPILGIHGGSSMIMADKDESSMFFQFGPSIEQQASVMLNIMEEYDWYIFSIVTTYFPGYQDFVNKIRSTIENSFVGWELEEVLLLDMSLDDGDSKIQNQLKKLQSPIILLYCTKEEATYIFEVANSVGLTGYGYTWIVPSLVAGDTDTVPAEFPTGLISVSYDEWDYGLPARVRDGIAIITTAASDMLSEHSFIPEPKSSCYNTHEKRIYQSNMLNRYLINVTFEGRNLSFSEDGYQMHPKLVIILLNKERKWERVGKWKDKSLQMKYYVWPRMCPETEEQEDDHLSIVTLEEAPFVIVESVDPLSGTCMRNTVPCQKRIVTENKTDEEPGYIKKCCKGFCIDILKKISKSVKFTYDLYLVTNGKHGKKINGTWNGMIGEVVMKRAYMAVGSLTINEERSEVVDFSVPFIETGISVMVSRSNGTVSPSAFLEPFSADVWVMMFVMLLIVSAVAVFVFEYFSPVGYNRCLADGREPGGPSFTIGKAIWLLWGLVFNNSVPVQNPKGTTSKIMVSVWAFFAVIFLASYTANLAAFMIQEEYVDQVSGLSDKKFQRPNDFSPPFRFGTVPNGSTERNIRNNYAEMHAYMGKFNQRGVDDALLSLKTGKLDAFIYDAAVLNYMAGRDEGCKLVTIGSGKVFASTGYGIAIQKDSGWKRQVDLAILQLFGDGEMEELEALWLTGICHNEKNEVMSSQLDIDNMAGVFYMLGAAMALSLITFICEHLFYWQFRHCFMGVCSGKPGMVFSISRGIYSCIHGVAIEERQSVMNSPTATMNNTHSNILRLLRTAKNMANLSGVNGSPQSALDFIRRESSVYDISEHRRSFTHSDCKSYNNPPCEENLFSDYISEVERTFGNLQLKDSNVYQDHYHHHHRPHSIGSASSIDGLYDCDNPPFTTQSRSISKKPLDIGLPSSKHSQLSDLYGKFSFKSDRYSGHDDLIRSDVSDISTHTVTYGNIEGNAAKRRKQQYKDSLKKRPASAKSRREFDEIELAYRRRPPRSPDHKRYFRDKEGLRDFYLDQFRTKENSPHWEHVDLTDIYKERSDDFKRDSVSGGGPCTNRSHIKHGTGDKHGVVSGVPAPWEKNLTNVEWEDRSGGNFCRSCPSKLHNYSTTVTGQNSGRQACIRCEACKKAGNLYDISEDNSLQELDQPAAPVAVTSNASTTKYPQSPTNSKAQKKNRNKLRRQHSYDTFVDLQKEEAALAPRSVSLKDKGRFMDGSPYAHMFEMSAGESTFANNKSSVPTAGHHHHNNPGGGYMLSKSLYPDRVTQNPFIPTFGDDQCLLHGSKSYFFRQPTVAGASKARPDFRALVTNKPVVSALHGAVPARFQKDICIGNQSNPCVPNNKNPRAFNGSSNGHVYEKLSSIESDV
Assay type: cell-based
In short: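 In a stable Tet-On-induced cell line expressing human GluN1/GluN2B, Calcium 5-loaded cells were preincubated 5 min with compound, then stimulated 5 min with glutamate at ~EC80 plus 10 μM glycine, in pH 7.4 HEPES buffer. FLIPR calcium fluorescence was normalized to control wells.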
Cc1cccc(-c2cnc3c(F)cn(CC(=O)N(C)C)c3c2)c1F [Example 494, 2-[3-Fluoro-6-(2-fluoro-3-methyl-phenyl)pyrrolo[3,2-b]pyridin-1-yl]-N,N-dimethyl-acetamide] was tested, and the IC50 was 316 nM.
CN(C)C(=O)Cn1cc(F)c2ncc(-c3ccccc3)cc21 [Example 495, 2-(3-Fluoro-6-phenyl-pyrrolo[3,2-b]pyridin-1-yl)-N,N-dimethyl-acetamide] showed an IC50 of 12.6 nM.
Compound Cc1cccc(-c2cnc3c(F)cn(CC(=O)N(C)C)c3c2)c1 [Example 496, 2-[3-Fluoro-6-(m-tolyl)pyrrolo[3,2-b]pyridin-1-yl]-N,N-dimethyl-acetamide] has an IC50 of 79.4 nM.
For O=C(Cn1cc(F)c2ncc(-c3ccccc3)cc21)N1CCC1 [Example 497, 1-(Azetidin-1-yl)-2-(3-fluoro-6-phenyl-pyrrolo[3,2-b]pyridin-1-yl)ethanone], the IC50 was 31.6 nM.
Work on CCc1cccc(-c2cnc3c(F)cn(CC(=O)N4CCC4)c3c2)c1 [Example 498, 1-(Azetidin-1-yl)-2-[6-(3-ethylphenyl)-3-fluoro-pyrrolo[3,2-b]pyridin-1-yl]ethanone] yielded an IC50 of 79.4 nM.
With CN(C)C(=O)Cn1cc(F)c2ncc(-c3cccc(C(F)(F)F)c3)cc21 [Example 499, 2-[3-Fluoro-6-[3-(trifluoromethyl)phenyl]pyrrolo[3,2-b]pyridin-1-yl]-N,N-dimethyl-acetamide] the IC50 was 25.1 nM.
CN(C)C(=O)Cn1cc(F)c2ncc(-c3cccc(C(F)(F)F)c3F)cc21 [Example 500, 2-[3-Fluoro-6-[2-fluoro-3-(trifluoromethyl)phenyl]pyrrolo[3,2-b]pyridin-1-yl]-N,N-dimethyl-acetamide] showed an IC50 of 31.6 nM.
Compound CN(C)C(=O)Cn1cc(F)c2ncc(-c3ccc(F)c(F)c3F)cc21 [Example 501, 2-[3-Fluoro-6-(2,3,4-trifluorophenyl)pyrrolo[3,2-b]pyridin-1-yl]-N,N-dimethyl-acetamide] has an IC50 of 39.8 nM.
For Cc1c(F)ccc(-c2cnc3c(F)cn(CC(=O)N(C)C)c3c2)c1F [Example 502, 2-[6-(2,4-Difluoro-3-methyl-phenyl)-3-fluoro-pyrrolo[3,2-b]pyridin-1-yl]-N,N-dimethyl-acetamide], the IC50 was 39.8 nM.
CN(C)C(=O)Cn1cc(F)c2ncc(-c3cccc(Cl)c3)cc21 [Example 503, 2-[6-(3-Chlorophenyl)-3-fluoro-pyrrolo[3,2-b]pyridin-1-yl]-N,N-dimethyl-acetamide] showed an IC50 of 15.8 nM.
Work on CN(C)C(=O)Cn1cc(F)c2ncc(-c3ccc(F)c(Cl)c3)cc21 [Example 504, 2-[6-(3-Chloro-4-fluoro-phenyl)-3-fluoro-pyrrolo[3,2-b]pyridin-1-yl]-N,N-dimethyl-acetamide] yielded an IC50 of 12.6 nM.
Work on CCc1cccc(-c2cnc3c(F)cn(CC(=O)N(C)C)c3c2)c1 [Example 505, 2-[6-(3-Ethylphenyl)-3-fluoro-pyrrolo[3,2-b]pyridin-1-yl]-N,N-dimethyl-acetamide] yielded an IC50 of 20 nM.
O=C(Cn1cc(F)c2ncc(-c3cccc(F)c3)cc21)N1CCC1 [Example 506, 1-(Azetidin-1-yl)-2-[3-fluoro-6-(3-fluorophenyl)pyrrolo[3,2-b]pyridin-1-yl]ethanone] showed an IC50 of 15.8 nM.
O=C(Cn1cc(F)c2ncc(-c3ccccc3F)cc21)N1CC(F)C1 [Example 507, 1-(3-Fluoroazetidin-1-yl)-2-[3-fluoro-6-(2-fluorophenyl)pyrrolo[3,2-b]pyridin-1-yl]ethanone] gave an IC50 of 20 nM.
In the case of O=C(Cn1cc(F)c2ncc(-c3ccc(F)c(C(F)(F)F)c3)cc21)N1CC(F)C1 [Example 508, 1-(3-Fluoroazetidin-1-yl)-2-[3-fluoro-6-[4-fluoro-3-(trifluoromethyl)phenyl]pyrrolo[3,2-b]pyridin-1-yl]ethanone], the IC50 is reported as 126 nM.
CN(C)C(=O)Cn1cc(F)c2ncc(-c3cc(F)cc(F)c3)cc21 [Example 509, 2-[6-(3,5-Difluorophenyl)-3-fluoro-pyrrolo[3,2-b]pyridin-1-yl]-N,N-dimethyl-acetamide] was tested, and the IC50 was 31.6 nM.
Work on CN(C)C(=O)Cn1cc(F)c2ncc(-c3cccc(F)c3)cc21 [Example 510, 2-[3-Fluoro-6-(3-fluorophenyl)pyrrolo[3,2-b]pyridin-1-yl]-N,N-dimethyl-acetamide] yielded an IC50 of 39.8 nM.
With CN(C)C(=O)Cn1cc(Cl)c2ncc(-c3ccccc3F)cc21 [Example 512, 2-[3-Chloro-6-(2-fluorophenyl)pyrrolo[3,2-b]pyridin-1-yl]-N,N-dimethyl-acetamide] the IC50 was 316 nM.
In the case of Cc1cccc(-c2cnc3c(Cl)cn(CC(=O)N(C)C)c3c2)c1F [Example 513, 2-[3-Chloro-6-(2-fluoro-3-methyl-phenyl)pyrrolo[3,2-b]pyridin-1-yl]-N,N-dimethyl-acetamide], the IC50 is reported as 50.1 nM.
For CN(C)C(=O)Cn1cc(Cl)c2ncc(-c3ccccc3)cc21 [Example 514, 2-(3-Chloro-6-phenyl-pyrrolo[3,2-b]pyridin-1-yl)-N,N-dimethyl-acetamide], the IC50 was 126 nM.
Cc1cccc(-c2cnc3c(Cl)cn(CC(=O)N(C)C)c3c2)c1 [Example 515, 2-[3-Chloro-6-(m-tolyl)pyrrolo[3,2-b]pyridin-1-yl]-N,N-dimethyl-acetamide] showed an IC50 of 100 nM.
In the case of CN(C)C(=O)Cn1cc(Cl)c2ncc(-c3ccc(F)c(C(F)(F)F)c3)cc21 [Example 516, 2-[3-Chloro-6-[4-fluoro-3-(trifluoromethyl)phenyl]pyrrolo[3,2-b]pyridin-1-yl]-N,N-dimethyl-acetamide], the IC50 is reported as 200 nM.
Compound CN(C)C(=O)Cn1cc(Cl)c2ncc(-c3cccc(C(F)(F)F)c3F)cc21 [Example 517, 2-[3-Chloro-6-[2-fluoro-3-(trifluoromethyl)phenyl]pyrrolo[3,2-b]pyridin-1-yl]-N,N-dimethyl-acetamide] has an IC50 of 100 nM.
Work on CN(C)C(=O)Cn1cc(Cl)c2ncc(-c3ccc(F)c(F)c3F)cc21 [Example 518, 2-[3-Chloro-6-(2,3,4-trifluorophenyl)pyrrolo[3,2-b]pyridin-1-yl]-N,N-dimethyl-acetamide] yielded an IC50 of 63.1 nM.
Cc1c(F)ccc(-c2cnc3c(Cl)cn(CC(=O)N(C)C)c3c2)c1F [Example 519, 2-[3-Chloro-6-(2,4-difluoro-3-methyl-phenyl)pyrrolo[3,2-b]pyridin-1-yl]-N,N-dimethyl-acetamide] gave an IC50 of 63.1 nM.
For CN(C)C(=O)Cn1cc(Cl)c2ncc(-c3ccc(F)c(Cl)c3)cc21 [Example 520, 2-[3-Chloro-6-(3-chloro-4-fluoro-phenyl)pyrrolo[3,2-b]pyridin-1-yl]-N,N-dimethyl-acetamide], the IC50 was 79.4 nM.
O=C(Cn1cc(Cl)c2ncc(-c3ccccc3F)cc21)N1CCC1 [Example 521, 1-(Azetidin-1-yl)-2-[3-chloro-6-(2-fluorophenyl)pyrrolo[3,2-b]pyridin-1-yl]ethanone] gave an IC50 of 126 nM.
For Cc1cccc(-c2cnc3c(Cl)cn(CC(=O)N4CCC4)c3c2)c1F [Example 522, 1-(Azetidin-1-yl)-2-[3-chloro-6-(2-fluoro-3-methyl-phenyl)pyrrolo[3,2-b]pyridin-1-yl]ethanone], the IC50 was 79.4 nM.
In the case of O=C(Cn1cc(Cl)c2ncc(-c3ccc(F)c(C(F)(F)F)c3)cc21)N1CCC1 [Example 523, 1-(Azetidin-1-yl)-2-[3-chloro-6-[4-fluoro-3-(trifluoromethyl)phenyl]pyrrolo[3,2-b]pyridin-1-yl]ethanone], the IC50 is reported as 158 nM.
For O=C(Cn1cc(Cl)c2ncc(-c3cccc(C(F)(F)F)c3F)cc21)N1CCC1 [Example 524, 1-(Azetidin-1-yl)-2-[3-chloro-6-[2-fluoro-3-(trifluoromethyl)phenyl]pyrrolo[3,2-b]pyridin-1-yl]ethanone], the IC50 was 79.4 nM.
Compound Cc1c(F)ccc(-c2cnc3c(Cl)cn(CC(=O)N4CCC4)c3c2)c1F [Example 525, 1-(Azetidin-1-yl)-2-[3-chloro-6-(2,4-difluoro-3-methyl-phenyl)pyrrolo[3,2-b]pyridin-1-yl]ethanone] has an IC50 of 50.1 nM.
With O=C(Cn1cc(Cl)c2ncc(-c3cccc(Cl)c3)cc21)N1CCC1 [Example 526, 1-(Azetidin-1-yl)-2-[3-chloro-6-(3-chlorophenyl)pyrrolo[3,2-b]pyridin-1-yl]ethanone] the IC50 was 63.1 nM.
O=C(Cn1cc(Cl)c2ncc(-c3ccc(F)c(Cl)c3)cc21)N1CCC1 [Example 527, 1-(Azetidin-1-yl)-2-[3-chloro-6-(3-chloro-4-fluoro-phenyl)pyrrolo[3,2-b]pyridin-1-yl]ethanone] was tested, and the IC50 was 50.1 nM.
O=C(Cn1cc(Cl)c2ncc(-c3cccc(Cl)c3F)cc21)N1CCC1 [Example 528, 1-(Azetidin-1-yl)-2-[3-chloro-6-(3-chloro-2-fluoro-phenyl)pyrrolo[3,2-b]pyridin-1-yl]ethanone] was tested, and the IC50 was 39.8 nM.
O=C(Cn1cc(Cl)c2ncc(-c3cccc(C(F)F)c3)cc21)N1CCC1 [Example 529, 1-(Azetidin-1-yl)-2-[3-chloro-6-[3-(difluoromethyl)phenyl]pyrrolo[3,2-b]pyridin-1-yl]ethanone] was tested, and the IC50 was 79.4 nM.
O=C(Cn1cc(Cl)c2ncc(-c3cccc(F)c3)cc21)N1CCC1 [Example 530, 1-(Azetidin-1-yl)-2-[3-chloro-6-(3-fluorophenyl)pyrrolo[3,2-b]pyridin-1-yl]ethanone] showed an IC50 of 39.8 nM.
In the case of CN(C)C(=O)Cn1cc(Cl)c2ncc(-c3cccc(F)c3)cc21 [Example 531, 2-[3-Chloro-6-(3-fluorophenyl)pyrrolo[3,2-b]pyridin-1-yl]-N,N-dimethyl-acetamide], the IC50 is reported as 50.1 nM.
O=C(Cn1cc(Cl)c2ncc(-c3cc(F)cc(F)c3)cc21)N1CCC1 [Example 532, 1-(Azetidin-1-yl)-2-[3-chloro-6-(3,5-difluorophenyl)pyrrolo[3,2-b]pyridin-1-yl]ethanone] showed an IC50 of 50.1 nM.
CCc1cccc(-c2cnc3c(Cl)cn(CC(=O)N4CCC4)c3c2)c1 [Example 533, 1-(Azetidin-1-yl)-2-[3-chloro-6-(3-ethylphenyl)pyrrolo[3,2-b]pyridin-1-yl]ethanone] gave an IC50 of 50.1 nM.
CN(C)C(=O)Cn1cc(Cl)c2ncc(-c3cccc(Cl)c3)cc21 [Example 534, 2-[3-Chloro-6-(3-chlorophenyl)pyrrolo[3,2-b]pyridin-1-yl]-N,N-dimethyl-acetamide] was tested, and the IC50 was 31.6 nM.
